Measurements as given in publication PMC7159882, “Polyunsaturated fatty acid analogues differentially affect cardiac NaV, CaV, and KV channels through unique mechanisms” (eLife, 2020).

Tested on: human induced pluripotent stem cell-derived cardiomyocytes (hiPSC-CM)
Assay: Optical recordings of calcium transients in hiPSC-CM monolayers
Type: cell-based
Description: Human induced pluripotent stem cell-derived cardiomyocytes (hiPSC-CM) were purchased from AXOL Bioscience. The hiPSC-CM were thawed and plated following the manufacturer’s protocol. Briefly, cells were plated on Matrigel (Corning) pre-coated glass coverslips cultivated in 96-multiwell plates (Falcon). Matrigel was diluted in sterile DMEM/F12 medium (Gibco) (1:130) and incubated for 2 hr at 37°C before plating the cells. hiPSC-CM were cultured at 37°C and 5% CO2. Cultured hiPSC-CM were fed every other day. […]
CaT fluorescence recordings from cell monolayers were recorded using a Leica DM LFS upright microscope. […] Fluorescence signals were passed through the emission filter, collected by a photodiode, and amplified with an Axopatch 200B patch clamp amplifier (Axon Instruments). Calcium fluorescence signals were low-pass Bessell-filtered (Frequency Devices) at 100 Hz, digitized at 1 kHz, and recorded using Clampex 9.2 and analyzed using Clampfit 9.2. […] Since hiPSC-CM were spontaneously beating and at slightly different frequencies between monolayers, the frequency of the action potentials was calculated as the inverse of the time between CaTs. The action potential duration (APD) was measured in the absence and the presence of DHA-Glycine. The APD90 (or the time required to achieve the 90% of repolarization of the CaT) was measured in all the experiments to test the effects of DHA-glycine. […]

## CC/C=C\C/C=C\C/C=C\C/C=C\C/C=C\C/C=C\CCC(=O)NCC(=O)O [DHA-glycine, docosahexaenoyl glycine]
30 µM, corrected by modified Fridericia's formula, control 472 ± 27 ms, n = 3
  CaT APD90c: 317 ± 9 ms
Doses lower than 30 μM
  effect on hiPSC-derived cardiomyocytes at lower doses: did not get significant effects at low doses
